# Measured values reported in patent US20170103183A1, “Model Generation for Drug Determination” (NORWEGIAN UNIVERSITY OF SCIENCE AND TECHNOLOGY, priority 2015, published 2017).
# Tested on: AGS cells xenograft tumors
# Assay: Subcutaneous AGS xenograft tumors in Balb/c mice
# Type: in vivo
# Conditions: single agent, low dose (PI103 5 mg/kg/d; (5Z)-7-oxozeaenol 3 mg/kg/d)
# Protocol: To validate the beneficial response to one of the combination predicted and validated in cell line experiments the inventors generated subcutaneously injected xenograft tumors in Balb/c mice. 100 μl of 2×10^5 AGS cells were mixed with 100 μl of Matrigel and injected subcutaneously n the right flanks of 40 mice. Tumors were allowed to grow for 4 weeks, and mice with palpable tumors (n=30) were randomized to four groups: control, PI103 (5 mg/kg/d), (5Z)-7-oxozeaenol (3 mg/kg/d) and combination group which received both PI103 (5 mg/kg/d) and (5Z)-7oxozeaenol (3 mg/kg/d). Mice were injected with inhibitors or vehicle three times per week for a total of seven injections. Tumors were measured twice weekly using callipers and estimated volume from the formula V=0.5*d12*d2, where d1 is shortest diameter and d2 is longest diameter of tumor. Randomization was set up so that tumor volume was similar among groups at onset of treatment. […] Similar results were obtained for Mann-Whitney tests.
row,Compound,activity of individual agent on tumor size compared to control
1,COc1cc(O)c2c(c1)/C=C/C[C@H](O)[C@H](O)C(=O)/C=C\C[C@H](C)OC2=O [(5Z)-7-oxozeaenol],non-significant
2,Oc1cccc(-c2nc(N3CCOCC3)c3oc4ncccc4c3n2)c1 [PI103],non-significant
